# Experimental data published in PubChem BioAssay AID2060888 (Molecular Pharmacology Branch, DTP, NCI, 2025).
# System: 695427-040-R-J1-PDC complex spheroid viability
# Experiment: Anticancer human tumor 695427-040-R-J1-PDC patient-derived colon adenocarcinoma cell line growth inhibition [RAS]
# Settings: for IC50: curve of first compound; for viability, T/C: stronger effect = lower value
# Outline: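 Tumour cells grown as complex spheroids with HUVEC endothelial cells and mesenchymal stem cells, treated with RAS pathway inhibitor combinations. Each agent spans half-log steps from near clinical Cmax, or 10 microM where Cmax is unknown.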
# [1] = second compound 0.00316 µM, first compound 0.0316 µM
# [2] = second compound 0.00316 µM, first compound 0.1 µM
# [3] = second compound 0.00316 µM, first compound 0.316 µM
# [4] = second compound 0.00316 µM, first compound 1 µM
# [5] = second compound 0.00316 µM, first compound 3.16 µM
# [6] = second compound 0.00316 µM, first compound 10 µM
# [7] = second compound 0.01 µM, first compound 0.0316 µM
# [8] = second compound 0.01 µM, first compound 0.1 µM
# [9] = second compound 0.01 µM, first compound 0.316 µM
# [10] = second compound 0.01 µM, first compound 1 µM
# [11] = second compound 0.01 µM, first compound 3.16 µM
# [12] = second compound 0.01 µM, first compound 10 µM
# [13] = second compound 0.0316 µM, first compound 0.0316 µM
# [14] = second compound 0.0316 µM, first compound 0.1 µM
# [15] = second compound 0.0316 µM, first compound 0.316 µM
# [16] = second compound 0.0316 µM, first compound 1 µM
# [17] = second compound 0.0316 µM, first compound 3.16 µM
# [18] = second compound 0.0316 µM, first compound 10 µM
# [19] = second compound 0.1 µM, first compound 0.0316 µM
# [20] = second compound 0.1 µM, first compound 0.1 µM
# [21] = second compound 0.1 µM, first compound 0.316 µM
# [22] = second compound 0.1 µM, first compound 1 µM
# [23] = second compound 0.1 µM, first compound 3.16 µM
# [24] = second compound 0.1 µM, first compound 10 µM
# [25] = second compound 0.316 µM, first compound 0.0316 µM
# [26] = second compound 0.316 µM, first compound 0.1 µM
# [27] = second compound 0.316 µM, first compound 0.316 µM
# [28] = second compound 0.316 µM, first compound 1 µM
# [29] = second compound 0.316 µM, first compound 3.16 µM
# [30] = second compound 0.316 µM, first compound 10 µM
# [31] = second compound 1 µM, first compound 0.0316 µM
# [32] = second compound 1 µM, first compound 0.1 µM
# [33] = second compound 1 µM, first compound 0.316 µM
# [34] = second compound 1 µM, first compound 1 µM
# [35] = second compound 1 µM, first compound 3.16 µM
# [36] = second compound 1 µM, first compound 10 µM
# 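Further: viability read after seven days of drug exposure.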
# 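Wherever viability, T/C is given: 100% = DMSO vehicle control viability.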
smiles,measurement,setting,value
CC(=O)OC12COC1CC(O)C1(C)C(=O)C(O)C3=C(C)C(OC(=O)C(O)C(NC(=O)OC(C)(C)C)c4ccccc4)CC(O)(C(OC(=O)c4ccccc4)C21)C3(C)C (configuration not stated) + C=CC(=O)N1CCN(c2nc(OCC3CCCN3C)nc3c(F)c(-c4nc(N)cc(C)c4C(F)(F)F)c(Cl)cc23)C(C)C1,IC50,second compound 0.00316 µM,> 10 µM
same,IC50,second compound 0.01 µM,> 10 µM
same,IC50,second compound 0.0316 µM,> 10 µM
same,IC50,second compound 0.1 µM,> 10 µM
same,IC50,second compound 0.316 µM,> 10 µM
same,IC50,second compound 1 µM,> 10 µM
same,"viability, T/C",[1],67.3%
same,"viability, T/C",[2],69%
same,"viability, T/C",[3],74.2%
same,"viability, T/C",[4],78.9%
same,"viability, T/C",[5],91.5%
same,"viability, T/C",[6],98%
same,"viability, T/C",[7],71.8%
same,"viability, T/C",[8],66.8%
same,"viability, T/C",[9],71%
same,"viability, T/C",[10],79.7%
same,"viability, T/C",[11],93%
same,"viability, T/C",[12],89.3%
same,"viability, T/C",[13],71%
same,"viability, T/C",[14],72.8%
same,"viability, T/C",[15],77.2%
same,"viability, T/C",[16],78%
same,"viability, T/C",[17],83.7%
same,"viability, T/C",[18],89.5%
same,"viability, T/C",[19],70.6%
same,"viability, T/C",[20],71.3%
same,"viability, T/C",[21],74%
same,"viability, T/C",[22],76.2%
same,"viability, T/C",[23],93.6%
same,"viability, T/C",[24],96.9%
same,"viability, T/C",[25],75.2%
same,"viability, T/C",[26],73.6%
same,"viability, T/C",[27],83.8%
same,"viability, T/C",[28],75%
same,"viability, T/C",[29],93.1%
same,"viability, T/C",[30],95.7%
same,"viability, T/C",[31],76.4%
same,"viability, T/C",[32],68.5%
same,"viability, T/C",[33],77.3%
same,"viability, T/C",[34],83.4%
same,"viability, T/C",[35],88.7%
same,"viability, T/C",[36],91.8%
NC1c2ccccc2OC12CCN(c1cnc3c(N4CCCc5ncccc54)n[nH]c3n1)CC2 (configuration not stated),"viability, T/C",compound 0.0316 µM,78.6% [middle of 4 runs]
same,"viability, T/C",compound 0.1 µM,64.9% [middle of 4 runs]
same,"viability, T/C",compound 0.316 µM,64.5% [middle of 4 runs]
same,"viability, T/C",compound 1 µM,55.7% [middle of 4 runs]
same,"viability, T/C",compound 3.16 µM,49.4% [middle of 4 runs]
same,"viability, T/C",compound 10 µM,43.5% [middle of 4 runs]
C=CC(=O)N1CCN(c2nc(OCC3CCCN3C)nc3c(F)c(-c4nc(N)cc(C)c4C(F)(F)F)c(Cl)cc23)C(C)C1 (configuration not stated) + CCn1c(-c2cc(N3CCN(C)CC3)cnc2C(C)OC)c2c3cc(ccc31)-c1csc(n1)CC(NC(=O)C1CC1C)C(=O)N1CCCC(N1)C(=O)OCC(C)(C)C2,IC50,second compound 0.000949 µM,> 1 µM
same,IC50,second compound 0.003 µM,> 1 µM
same,IC50,second compound 0.00949 µM,> 1 µM
same,IC50,second compound 0.03 µM,> 1 µM
same,IC50,second compound 0.0949 µM,< 0.00316 µM
same,IC50,second compound 0.3 µM,< 0.00316 µM
same,"viability, T/C","second compound 0.000949 µM, first compound 0.00316 µM",91.6%
same,"viability, T/C","second compound 0.000949 µM, first compound 0.01 µM",115%
same,"viability, T/C","second compound 0.000949 µM, first compound 0.0316 µM",99.4%
same,"viability, T/C","second compound 0.000949 µM, first compound 0.1 µM",94.1%
same,"viability, T/C","second compound 0.000949 µM, first compound 0.316 µM",110%
same,"viability, T/C","second compound 0.000949 µM, first compound 1 µM",90%
same,"viability, T/C","second compound 0.003 µM, first compound 0.00316 µM",92.3%
same,"viability, T/C","second compound 0.003 µM, first compound 0.01 µM",99.9%
same,"viability, T/C","second compound 0.003 µM, first compound 0.0316 µM",85.7%
same,"viability, T/C","second compound 0.003 µM, first compound 0.1 µM",85%
same,"viability, T/C","second compound 0.003 µM, first compound 0.316 µM",98.9%
same,"viability, T/C","second compound 0.003 µM, first compound 1 µM",85.5%
same,"viability, T/C","second compound 0.00949 µM, first compound 0.00316 µM",94%
same,"viability, T/C","second compound 0.00949 µM, first compound 0.01 µM",69.2%
same,"viability, T/C","second compound 0.00949 µM, first compound 0.0316 µM",81.2%
same,"viability, T/C","second compound 0.00949 µM, first compound 0.1 µM",75.3%
same,"viability, T/C","second compound 0.00949 µM, first compound 0.316 µM",76.4%
same,"viability, T/C","second compound 0.00949 µM, first compound 1 µM",69.1%
same,"viability, T/C","second compound 0.03 µM, first compound 0.00316 µM",69.5%
same,"viability, T/C","second compound 0.03 µM, first compound 0.01 µM",63.7%
same,"viability, T/C","second compound 0.03 µM, first compound 0.0316 µM",57%
same,"viability, T/C","second compound 0.03 µM, first compound 0.1 µM",55.5%
same,"viability, T/C","second compound 0.03 µM, first compound 0.316 µM",56.3%
same,"viability, T/C","second compound 0.03 µM, first compound 1 µM",59%
same,"viability, T/C","second compound 0.0949 µM, first compound 0.00316 µM",52.3%
same,"viability, T/C","second compound 0.0949 µM, first compound 0.01 µM",47.7%
same,"viability, T/C","second compound 0.0949 µM, first compound 0.0316 µM",42.3%
same,"viability, T/C","second compound 0.0949 µM, first compound 0.1 µM",42.8%
same,"viability, T/C","second compound 0.0949 µM, first compound 0.316 µM",47.1%
same,"viability, T/C","second compound 0.0949 µM, first compound 1 µM",45.1%
same,"viability, T/C","second compound 0.3 µM, first compound 0.00316 µM",39.2%
same,"viability, T/C","second compound 0.3 µM, first compound 0.01 µM",34.7%
same,"viability, T/C","second compound 0.3 µM, first compound 0.0316 µM",42.7%
same,"viability, T/C","second compound 0.3 µM, first compound 0.1 µM",38%
same,"viability, T/C","second compound 0.3 µM, first compound 0.316 µM",36.8%
same,"viability, T/C","second compound 0.3 µM, first compound 1 µM",37.1%
CC(C)NCC(C(=O)N1CCN(c2ncnc3c2C(C)CC3O)CC1)c1ccc(Cl)cc1 (configuration not stated) + C=CC(=O)N1CCN(c2nc(OCC3CCCN3C)nc3c(F)c(-c4nc(N)cc(C)c4C(F)(F)F)c(Cl)cc23)C(C)C1,IC50,second compound 0.00316 µM,> 10 µM
same,IC50,second compound 0.01 µM,> 10 µM
same,IC50,second compound 0.0316 µM,> 10 µM
same,IC50,second compound 0.1 µM,> 10 µM
same,IC50,second compound 0.316 µM,> 10 µM
same,IC50,second compound 1 µM,> 10 µM
same,"viability, T/C",[1],98%
same,"viability, T/C",[2],95.2%
same,"viability, T/C",[3],88.2%
same,"viability, T/C",[4],84.7%
same,"viability, T/C",[5],93.6%
same,"viability, T/C",[6],108%
same,"viability, T/C",[7],107%
same,"viability, T/C",[8],102%
same,"viability, T/C",[9],88.5%
same,"viability, T/C",[10],93.3%
same,"viability, T/C",[11],101%
same,"viability, T/C",[12],111%
same,"viability, T/C",[13],109%
same,"viability, T/C",[14],91.1%
same,"viability, T/C",[15],91.7%
same,"viability, T/C",[16],87.8%
same,"viability, T/C",[17],102%
same,"viability, T/C",[18],106%
same,"viability, T/C",[19],98.7%
same,"viability, T/C",[20],91.5%
same,"viability, T/C",[21],81.3%
same,"viability, T/C",[22],83.6%
same,"viability, T/C",[23],105%
same,"viability, T/C",[24],111%
same,"viability, T/C",[25],107%
same,"viability, T/C",[26],88.6%
same,"viability, T/C",[27],91.4%
same,"viability, T/C",[28],95.2%
same,"viability, T/C",[29],102%
same,"viability, T/C",[30],107%
same,"viability, T/C",[31],91.7%
same,"viability, T/C",[32],94.6%
same,"viability, T/C",[33],89%
same,"viability, T/C",[34],79.7%
same,"viability, T/C",[35],81.5%
same,"viability, T/C",[36],89.5%
